Data from patent publication US20100331269A1, “TRITERPENES DERIVATIVES AND USES THEREOF AS ANTITUMOR AGENTS OR ANTI-INFLAMMATORY AGENTS” (priority 2006, published 2010).

Tests used:
[1] = tested on: DLD-1 cells; assay: Cytotoxicity, Hoechst DNA assay, DLD-1; format: cell-based, human; conditions: ± SD
Excerpt: (§1) Human lung carcinoma (A-549), human colon adenocarcinoma (DLD-1), human normal fibroblasts (WS1), mice melanoma (B16-F1), Human glioma (U-251), Human hepatocellular carcinoma (HEP G2), Human prostate adenocarcinoma (PC-3), Human ovary teratocarcinoma metastatic (PA-1), Human breast adenocarcinona metastatic (MDA-MB-231), Human breast adenocarcinoma (MCF-7) and Human malignant melanoma (SK-MEL-2) cell lines were obtained from the American Type Culture Collection (ATCC). All cell lines were cultured in minimum essential medium containing Earle's salts and L-glutamine (Mediatech Cellgro, Va.), to which was added 10% fetal bovine serum (Hyclone), vitamins (1×), penicillin (100 I.U./mL) and streptomycin (100 μg/mL), essential amino acids (1×) and sodium pyruvate (1×) (Mediatech Cellgro, Va.). Cells were kept at 37° C. in a humidified environment containing 5% CO2.
(§2) The cytotoxicity of triterpenes (1-8) and corresponding glycosides (9-30) (Table 2 below) as well as of germanicane-type triterpenes and glycosides (31-44) (Table 3 below) was assessed towards human cancer (A-549, DLD-1), mouse melanoma (B16-F1) and human normal skin fibroblast (WS1) cell lines using the resazurin reduction test (RTT test) as previously described (O'Brien, J. et al., Eur. J. Biochem. 2000, 267, 5421-5426). Measurements of fluorescence were carried out after 48 continuous hours of contact between compounds and cells. Results presented in Tables 2 and 3 below express the concentration inhibiting 50% of the cell growth (IC50). Known for its activity against A-549, betulinic acid (3) was used as a positive control in this experimentation. […] The cytotoxic activity of some of these compounds was also assessed using the Hoechst DNA assay (Table 4 below).

[2] = tested on: WS-1 human normal skin fibroblasts; assay: Cytotoxicity, resazurin metabolism assay, WS-1; format: cell-based; conditions: 48 h, mean ± SD
Excerpt: as §1
(§3) Exponentially growing cells were plated in 96-well microplates (Costar, Corning Inc.) at a density of 5×10^3 cells per well in 100 μL of culture medium and were allowed to adhere for 16 hours before treatment. Increasing concentrations of each compound in DMSO (Sigma-Aldrich) were then added (100 μL per well) and the cells were incubated for 48 h. […] Cytotoxicity was assessed using resazurin (O'Brien, J. et al., Eur. J. Biochem. 2000, 267, 5421-5426) on an automated 96-well Fluoroskan Ascent F1™ plate reader (Labsystems) using excitation and emission wavelengths of 530 nm and 590 nm, respectively. Fluorescence was proportional to the cellular metabolic activity in each well. Survival percentage was defined as the fluorescence in experimental wells compared to that in control wells after subtraction of blank values. Each experiment was carried out three times in triplicata. IC50 results were expressed as mean±standard deviation.
as §2

[3] = tested on: A-549 cells; assay: Cytotoxicity, Hoechst DNA assay, A-549; format: cell-based, human; conditions: ± SD
Excerpt: as §1, §2

[4] = tested on: A-549 human lung carcinoma cells; assay: Cytotoxicity, resazurin metabolism assay, A-549; format: cell-based; conditions: 48 h, mean ± SD
Excerpt: as §1, §3, §2

[5] = tested on: DLD-1 human colorectal adenocarcinoma cells; assay: Cytotoxicity, resazurin metabolism assay, DLD-1; format: cell-based; conditions: 48 h, mean ± SD
Excerpt: as §1, §3, §2

[6] = tested on: WS-1 cells; assay: Cytotoxicity, Hoechst DNA assay, WS-1; format: cell-based, human; conditions: ± SD
Excerpt: as §1, §2

[7] = tested on: B16-F1 mouse melanoma cells; assay: Cytotoxicity, resazurin metabolism assay, B16-F1; format: cell-based; conditions: 48 h, mean ± SD
Excerpt: as §1, §3, §2

[8] = tested on: B16-F1 cells; assay: Cytotoxicity, Hoechst DNA assay, B16-F1; format: cell-based, mouse; conditions: ± SD
Excerpt: as §1, §2

[9] = tested on: SK-Mel-2 human melanoma cells; assay: Cytotoxicity, resazurin metabolism assay, SK-Mel-2; format: cell-based; conditions: mean ± SD
Excerpt: as §1, §3
(§4) Compounds presented in Table 5 below were also tested in the following tumour cell lines: U-251 (Human glioma), HEP G2 (Human hepatocellular carcinoma), PC-3 (Human prostate adenocarcinoma), PA-1 (Human ovary teratocarcinoma metastatic), MDA-MB-231 (Human breast adenocarcinona metastatic), MCF-7 (Human breast adenocarcinoma) and SK-MEL-2 (Human malignant melanoma).

[10] = tested on: U-251 human glioma cells; assay: Cytotoxicity, resazurin metabolism assay, U-251; format: cell-based; conditions: mean ± SD
Excerpt: as §1, §3, §4

[11] = tested on: MDA-MB-231 human breast adenocarcinoma cells; assay: Cytotoxicity, resazurin metabolism assay, MDA-MB-231; format: cell-based; conditions: mean ± SD
Excerpt: as §1, §3, §4

[12] = tested on: Hep G2 human hepatocellular carcinoma cells; assay: Cytotoxicity, resazurin metabolism assay, Hep G2; format: cell-based; conditions: mean ± SD
Excerpt: as §1, §3, §4

[13] = tested on: PC-3 human prostate adenocarcinoma cells; assay: Cytotoxicity, resazurin metabolism assay, PC-3; format: cell-based; conditions: mean ± SD
Excerpt: as §1, §3, §4

[14] = tested on: PA-1 human ovary teratocarcinoma cells; assay: Cytotoxicity, resazurin metabolism assay, PA-1; format: cell-based; conditions: mean ± SD
Excerpt: as §1, §3, §4

[15] = tested on: MCF-7 human breast adenocarcinoma cells; assay: Cytotoxicity, resazurin metabolism assay, MCF-7; format: cell-based; conditions: mean ± SD
Excerpt: as §1, §3, §4

Row | Structure (SMILES) | IC50 [1] [µM] | IC50 [2] [µM] | IC50 [3] [µM] | IC50 [4] [µM] | IC50 [5] [µM] | IC50 [6] [µM] | IC50 [7] [µM] | IC50 [8] [µM] | IC50 [9] [µM] | IC50 [10] [µM] | IC50 [11] [µM] | IC50 [12] [µM] | IC50 [13] [µM] | IC50 [14] [µM] | IC50 [15] [µM]
1 | C=CCOC(=O)C12CCC(C(=C)C)C1C1CCC3C4(C)CCC(O)C(C)(C)C4CCC3(C)C1(C)CC2 (centres unmarked) [Compound 8, Allyl betulinate] | > 225 | > 225 | > 225 | > 225 | > 225 | > 225 | > 225 | > 225 | – | – | – | – | – | – | –
2 | C=C(C)[C@@H]1CC[C@]2(C)CC[C@]3(C)[C@H](CC[C@@H]4[C@@]5(C)CC[C@H](O[C@@H]6O[C@H](CO)[C@@H](O)[C@H](O)[C@H]6O)C(C)(C)[C@@H]5CC[C@]43C)[C@@H]12 [Compound 9, 3-O-6-D-Glucopyranoside of lupeol] | 19 ± 1 | 13.3 ± 0.5 | 22 ± 2 | 14 ± 1 | 14 ± 1 | 20 ± 2 | 15 ± 0.7 | 18 ± 2 | 15.5 ± 0.6 | 17.9 ± 0.7 | 20.9 ± 0.6 | 17.8 ± 0.2 | 30 ± 2 | 13 ± 1 | 16.4 ± 0.5
3 | C=C(C)[C@@H]1CC[C@]2(C)CC[C@]3(C)[C@H](CC[C@@H]4[C@@]5(C)CC[C@H](O[C@@H]6O[C@@H](C)[C@H](O)[C@@H](O)[C@H]6O)C(C)(C)[C@@H]5CC[C@]43C)[C@@H]12 [Compound 10, 3-O-α-L-Rhamnopyranoside of lupeol] | > 178 | > 178 | > 178 | > 178 | > 178 | > 178 | > 178 | > 178 | – | – | – | – | – | – | –
4 | C=C(C)[C@@H]1CC[C@]2(CO)CC[C@]3(C)[C@H](CC[C@@H]4[C@@]5(C)CC[C@H](O[C@@H]6O[C@H](CO)[C@@H](O)[C@H](O)[C@H]6O)C(C)(C)[C@@H]5CC[C@]43C)[C@@H]12 [Compound 12, 3-O-β-D-Glucopyranoside of Betulin] | > 200 | > 200 | > 200 | > 200 | > 200 | > 200 | > 200 | > 200 | – | – | – | – | – | – | –
5 | C=C(C)C1CCC2(CO)CCC3(C)C(CCC4C5(C)CCC(OC6OC(C)C(O)C(O)C6O)C(C)(C)C5CCC43C)C12 [Compound 13, 3-O-α-L-Rhamnopyranoside of Betulin] | – | 33 ± 5 | – | 22 ± 3 | 50 ± 10 | – | 18 ± 1 | – | 110 ± 20 | 170 ± 40 | 33 ± 2 | 11 ± 0.9 | 61 ± 6 | 180 ± 30 | 19 ± 4
6 | C=C(C)C1CCC2(CO)CCC3(C)C(CCC4C5(C)CCC(OC6OCC(O)C(O)C6O)C(C)(C)C5CCC43C)C12 [Compound 14, 3-O-α-D-Arabinopyranoside of Betulin] | – | 59 ± 5 | – | 41 ± 3 | 63 ± 8 | – | 38 ± 3 | – | 54 ± 3 | 40 ± 7 | 49.2 ± 0.9 | 38 ± 2 | 65 ± 6 | 41 ± 5 | 61 ± 7
7 | C=C(C)[C@@H]1CC[C@]2(CO[C@@H]3O[C@H](CO)[C@@H](O)[C@H](O)[C@H]3O)CC[C@]3(C)[C@H](CC[C@@H]4[C@@]5(C)CC[C@H](O)C(C)(C)[C@@H]5CC[C@]43C)[C@@H]12 [Compound 15, 28-O-β-D-Glucopyranoside of Betulin] | > 194 | > 248 | > 194 | > 248 | > 248 | > 194 | > 248 | > 194 | – | – | – | – | – | – | –
8 | C=C(C)C1CCC2(COC3OC(C)C(O)C(O)C3O)CCC3(C)C(CCC4C5(C)CCC(O)C(C)(C)C5CCC43C)C12 [Compound 16, 28-O-α-L-Rhamnopyranoside of Betulin] | > 194 | > 228 | > 194 | > 228 | > 228 | > 194 | > 228 | > 194 | – | – | – | – | – | – | –
9 | C=C(C)[C@@H]1CC[C@]2(C(=O)OC)CC[C@]3(C)[C@H](CC[C@@H]4[C@@]5(C)CC[C@H](O[C@@H]6O[C@@H](C)[C@H](O)[C@@H](O)[C@H]6O)C(C)(C)[C@@H]5CC[C@]43C)[C@@H]12 [Compound 19, 3-O-α-L-Rhamnopyranoside of Methyl Betulinate] | > 150 | 53 ± 2 | 58 ± 2 | 59 ± 3 | > 183 | 65 ± 5 | 55 ± 2 | 46 ± 1 | – | – | – | – | – | – | –
10 | C=C(C)[C@@H]1CC[C@]2(C(=O)O)CC[C@]3(C)[C@H](CC[C@@H]4[C@@]5(C)CC[C@H](O[C@@H]6O[C@H](CO)[C@@H](O)[C@H](O)[C@H]6O)C(C)(C)[C@@H]5CC[C@]43C)[C@@H]12 [Compound 21, 3-O-β-D-Glucopyranoside of Betulinic Acid] | 12 ± 3 | > 178 | > 178 | > 178 | 32 ± 9 | > 178 | 49 ± 13 | 17 ± 4 | – | – | – | – | – | – | –
11 | C=C(C)C1CCC2(CO)CCC3(C)C(CCC4C5(C)CCC(OC6OC(CO)C(O)C(O)C6O)C(C)(C)C5CCC43C)C12 [Compound 26, 3-O-β-D-Mannopyranoside of Betulin] | – | 5.3 ± 0.5 | – | 7.5 ± 0.1 | 11 ± 0.5 | – | – | – | 8.8 ± 0.4 | 8.3 ± 0.4 | 9.1 ± 0.2 | 8.3 ± 0.4 | 8.6 ± 0.4 | 7.6 ± 0.4 | 9.2 ± 0.4
12 | C=C(C)C1CCC2(C(=O)O)CCC3(C)C(CCC4C5(C)CCC(OC6OC(CO)C(O)C(O)C6O)C(C)(C)C5CCC43C)C12 [Compound 29, 3-O-β-D-Mannopyranoside of Betulinic Acid] | – | 16 ± 3 | – | 41 ± 4 | 14.9 ± 0.5 | – | – | – | 4.7 ± 0.6 | 6 ± 2 | 21 ± 2 | 26 ± 2 | 27 ± 3 | 2.2 ± 0.2 | 20 ± 2
13 | C=C(C)[C@@H]1CC[C@]2(C(=O)O)CC[C@]3(C)[C@H](CC[C@@H]4[C@@]5(C)CC[C@H](O[C@@H]6OC[C@@H](O)[C@H](O)[C@H]6O)C(C)(C)[C@@H]5CC[C@]43C)[C@@H]12 [Compound 30, 3-O-β-D-Xylopyranoside of betulinic acid] | – | 21 ± 1 | – | 14 ± 2 | 19.2 ± 0.8 | – | – | – | 36 ± 4 | 26 ± 6 | 40 ± 4 | 43 ± 3 | 46 ± 8 | 7.9 ± 0.9 | 23 ± 4
14 | CC1(C)CCC23CCC4(C)C(CCC5C6(C)CCC(OC7OC(CO)C(O)C(O)C7O)C(C)(C)C6CCC54C)C2C1OC3 [Compound 33, 3-O-β-D-Glucopyranoside of Allobetulin] | – | 45 ± 3 | – | 31 ± 2 | 41.6 ± 0.9 | – | – | – | 37 ± 2 | 46 ± 1 | 41.2 ± 0.7 | 44 ± 5 | 42 ± 8 | 39 ± 2 | 51 ± 2
15 | CC1(C)CC[C@]23CC[C@]4(C)[C@H](CC[C@@H]5[C@@]6(C)CC[C@H](O[C@@H]7O[C@H](CO)[C@H](O)[C@H](O)[C@H]7O)C(C)(C)[C@@H]6CC[C@]54C)[C@H]2[C@H]1OC3 [Compound 36, 3-O-β-D-Galactopyranoside of Allobetulin] | – | 30 ± 9 | – | 30 ± 10 | 42 ± 9 | – | – | – | 40 ± 3 | 53 ± 4 | 44 ± 4 | 41 ± 10 | 45 ± 6 | 45 ± 4 | 60 ± 20
